According to patent US11078170B2 (Assembly Biosciences, Inc., priority 2017, dated 2021):

Tested on: HBV viral production from HepAD38 cells
Assay: Activity of test compounds on viral production from HepAD38 cells (viral load by qPCR of HBV core sequence in supernatant)
Type: cell-based
Conditions: Hepatitis B virus, 120 h, 5 days incubation, HBV DNA in supernatant by qPCR, top concentration 10 μM, read-out: Viral Load EC50 Activity range
In short: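 EC50 and CC50 come from four-parameter fits of supernatant viral load and CellTiter-Glo viability, respectively. Viral load was measured by core-region TaqMan qPCR against HBV DNA standards and compared with DMSO controls. Tet-free HepAD38 cells (50,000/well, 2% FBS) were exposed to compound, highest 10 μM, for 5 days at 37° C.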

Which EC50 does the source give for CN1[C@H](C(=O)Nc2cc(Br)cc(Br)c2)C[C@H](c2cccs2)NS1(=O)=O [HBV-CSU-048-ISO-I, Cis-N-(3,5-Dibromophenyl)-2-methyl-5-(thiophen-2-yl)-1,2,6-thiadiazinane-3-carboxamide 1,1-dioxide] here?
The EC50 was less than 1000 nM.

CN1C(C(=O)Nc2ccc(F)c(F)c2)CC(c2cccs2)NS1(=O)=O (stereo not drawn) [HBV-CSU-011, Cis-N-(3,4-difluorophenyl)-2-methyl-5-(thiophen-2-yl)-1,2,6-thiadiazinane-3-carboxamide 1,1-dioxide] was tested. Which EC50 did it give?
The EC50 was less than 1000 nM.

CN1[C@@H](C(=O)Nc2ccc(F)c(Cl)c2)C[C@@H](c2ccc(Cl)cc2)NS1(=O)=O [HBV-CSU-265-ISO-II] was tested. Which EC50 did it give?
The EC50 was greater than 5000 nM.

With CN1[C@@H](C(=O)Nc2ccc(F)c(Cl)c2)C[C@@H](c2ccc(-c3cccnc3)s2)NS1(=O)=O [HBV-CSU-159-ISO-I, Cis-N-(3-chloro-4-fluorophenyl)-2-methyl-5-(5-(pyridin-3-yl)thiophen-2-yl)-1,2,6-thiadiazinane-3-carboxamide 1,1-dioxide] as the molecule, how does the EC50 read?
Its EC50 is 1000 to 5000 nM.

For O=C(Nc1ccc(F)c(Cl)c1)[C@@H]1C[C@H](c2nccs2)NS(=O)(=O)N1CCCN1CCCC1 [HBV-CSU-102-ISO-II, Cis-N-(3-Chloro-4-fluorophenyl)-2-(3-(pyrrolidin-1-yl)propyl)-5-(thiazol-2-yl)-1,2,6-thiadiazinane-3-carboxamide 1,1-dioxide], which EC50 is on record?
The EC50 was greater than 5000 nM.

Which EC50 does the source give for COCCN1C(C(=O)Nc2ccc(F)c(Cl)c2)CC(c2ccc(F)cc2)NS1(=O)=O (racemic) [HBV-CSU-210, Cis-N-(3-Chloro-4-fluorophenyl)-5-(4-fluorophenyl)-2-(2-methoxyethyl)-1,2,6-thiadiazinane-3-carboxamide 1,1-dioxide] here?
Its EC50 is less than 1000 nM.

For CN(C)CCCOc1ccc([C@H]2C[C@@H](C(=O)Nc3ccc(F)c(Cl)c3)N(C)S(=O)(=O)N2)cc1 [HBV-CSU-208-ISO-II, Cis-N-(3-chloro-4-fluorophenyl)-5-(4-(3-(dimethylamino)propoxy)phenyl)-2-methyl-1,2,6-thiadiazinane-3-carboxamide 1,1-dioxide], which EC50 is on record?
Its EC50 is less than 1000 nM.

How did the EC50 turn out when [2H]C1[C@]([2H])(c2ncc(-c3cn(C)cn3)s2)NS(=O)(=O)N(C([2H])([2H])[2H])[C@]1([2H])C(=O)Nc1ccc(F)c(Cl)c1 (stereo in doubt) [HBV-CSU-340-ISO-I, Cis-N-(3-Chloro-4-fluorophenyl)-2-(methyl-d3)-5-(5-(1-methyl-1H-imidazol-4-yl)thiazol-2-yl)-1,2,6-thiadiazinane-3,4,5-d3-3-carboxamide 1,1-dioxide] was run?
Its EC50 is less than 1000 nM.

Which EC50 does the source give for Cc1csc([C@@H]2C[C@H](C(=O)Nc3ccc(F)c(Cl)c3)N(C)S(=O)(=O)N2)c1 [HBV-CSU-147-ISO-II, Cis-N-(3-chloro-4-fluorophenyl)-2-methyl-5-(4-methylthiophen-2-yl)-1,2,6-thiadiazinane-3-carboxamide 1,1-dioxide] here?
Its EC50 is greater than 5000 nM.

O=C(Nc1ccc(F)c(Cl)c1)C1CC(c2nccs2)NS(=O)(=O)N1CCCO (racemic) [HBV-CSU-078, Cis-N-(3-Chloro-4-fluorophenyl)-2-(3-hydroxypropyl)-5-(thiazol-2-yl)-1,2,6-thiadiazinane-3-carboxamide 1,1-dioxide] was tested. Which EC50 did it give?
The EC50 was 1000 to 5000 nM.

How did the EC50 turn out when CN1[C@H](C(=O)Nc2ccc(F)c(Cl)c2)C[C@H](c2ncc(-c3ccc(F)cc3)s2)NS1(=O)=O [HBV-CSU-248-ISO-I, Cis-N-(3-Chloro-4-fluorophenyl)-5-(5-(4-fluorophenyl)thiazol-2-yl)-2-methyl-1,2,6-thiadiazinane-3-carboxamide 1,1-dioxide] was run?
The EC50 was less than 1000 nM.

For CN1C(C(=O)Nc2ccc(F)c(Cl)c2)CC(c2ccc(-c3cn(C)cn3)s2)NS1(=O)=O (racemic) [HBV-CSU-266, Cis-N-(3-Chloro-4-fluorophenyl)-2-methyl-5-(5-(1-methyl-1H-imidazol-4-yl)thiophen-2-yl)-1,2,6-thiadiazinane-3-carboxamide 1,1-dioxide], which EC50 is on record?
The EC50 was less than 1000 nM.

With CN1[C@H](C(=O)Nc2ccc(F)c(Cl)c2)C[C@H](c2ccc(C(F)(F)F)cc2)NS1(=O)=O (stereo in doubt) [HBV-CSU-217-ISO-I, Cis-N-(3-Chloro-4-fluorophenyl)-2-methyl-5-(4-(trifluoromethyl)phenyl)-1,2,6-thiadiazinane-3-carboxamide 1,1-dioxide] as the molecule, how does the EC50 read?
Its EC50 is greater than 5000 nM.

For CN1[C@H](C(=O)Nc2ccc(F)c(Cl)c2)C[C@H](c2ccc(Cc3ccccc3)s2)NS1(=O)=O [HBV-CSU-117-ISO-I, Cis-(5-benzylthiophen-2-yl)-N-(3-chloro-4-fluorophenyl)-2-methyl-1,2,6-thiadiazinane-3-carboxamide 1,1-dioxide], which EC50 is on record?
Its EC50 is less than 1000 nM.

With CN1C(C(=O)Nc2ccc(F)c(Cl)c2)CC(c2ccc(F)cc2)NS1(=O)=O (stereo not drawn) [HBV-CSU-112 (Cis), Cis-N-(3-Chloro-4-fluorophenyl)-5-(4-fluorophenyl)-2-methyl-1,2,6-thiadiazinane-3-carboxamide 1,1-dioxide] as the molecule, how does the EC50 read?
The EC50 was less than 1000 nM.

O=C(Nc1ccc(F)c(Cl)c1)[C@H]1C[C@@H](c2nccs2)NS(=O)(=O)N1CCOC(F)(F)F [HBV-CSU-072-ISO-I, Cis-N-(3-Chloro-4-fluorophenyl)-5-(thiazol-2-yl)-2-(2-(trifluoromethoxy)ethyl)-1,2,6-thiadiazinane-3-carboxamide 1,1-dioxide] was tested. Which EC50 did it give?
Its EC50 is greater than 5000 nM.

For [2H]C1[C@]([2H])(c2ncc(-c3cn(C([2H])([2H])[2H])cn3)s2)NS(=O)(=O)N(C)[C@]1([2H])C(=O)Nc1ccc(F)c(Cl)c1 (stereo in doubt) [HBV-CSU-341-ISO-I, Cis-N-(3-Chloro-4-fluorophenyl)-2-methyl-5-(5-(1-(methyl-d3)-1H-imidazol-4-yl)thiazol-2-yl)-1,2,6-thiadiazinane-3,4,5-d3-3-carboxamide 1,1-dioxide], which EC50 is on record?
The EC50 was less than 1000 nM.

How did the EC50 turn out when CN1C(C(=O)Nc2ccc(F)c(Cl)c2)CC(c2cc(-c3cncn3C)cs2)NS1(=O)=O (racemic) [HBV-CSU-285, Cis-N-(3-Chloro-4-fluorophenyl)-2-methyl-5-(4-(1-methyl-1H-imidazol-5-yl)thiophen-2-yl)-1,2,6-thiadiazinane-3-carboxamide 1,1-dioxide] was run?
The EC50 was less than 1000 nM.

With C#CCCN1[C@H](C(=O)Nc2ccc(F)c(Cl)c2)C[C@H](c2nccs2)NS1(=O)=O [HBV-CSU-090-ISO-I, Cis-2-(But-3-yn-1-yl)-N-(3-chloro-4-fluorophenyl)-5-(thiazol-2-yl)-1,2,6-thiadiazinane-3-carboxamide 1,1-dioxide] as the molecule, how does the EC50 read?
Its EC50 is less than 1000 nM.

How did the EC50 turn out when CN1[C@@H](C(=O)Nc2ccc(F)c(Cl)c2)C[C@@H](c2ncc(-c3cccs3)s2)NS1(=O)=O [HBV-CSU-178-ISO-II, Cis-N-(3-Chloro-4-fluorophenyl)-2-methyl-5-(5-(thiophen-2-yl)thiazol-2-yl)-1,2,6-thiadiazinane-3-carboxamide 1,1-dioxide] was run?
Its EC50 is 1000 to 5000 nM.

For CN1C(C(=O)Nc2ccc(F)c(Cl)c2)CC(c2cccc(F)c2)NS1(=O)=O (racemic) [HBV-CSU-231, Cis-N-(3-Chloro-4-fluorophenyl)-5-(3-fluorophenyl)-2-methyl-1,2,6-thiadiazinane-3-carboxamide 1,1-dioxide], which EC50 is on record?
Its EC50 is less than 1000 nM.

CN1C(C(=O)Nc2ccc(F)c(Cl)c2)CC(c2ccc(C(=O)O)cc2)NS1(=O)=O (racemic) [HBV-CSU-218, Cis-4-(5-((3-Chloro-4-fluorophenyl)carbamoyl)-6-methyl-1,1-dioxido-1,2,6-thiadiazinan-3-yl)benzoic acid] was tested. Which EC50 did it give?
The EC50 was 1000 to 5000 nM.
